# Laboratory results published in patent US9493402B2, “Omega-aminoalkylamides of R-2-aryl-propionic acids as inhibitors of the chemotaxis of polymorphonucleate and mononucleate cells” (Dompé S.p.A., priority 2001, dated 2016).
# Structures can show the parent of a compound that is named as a salt.
# How the values were obtained:
# [1] = test system: human circulating polymorphonucleates (PMNs), C5a induced chemotaxis; experiment: C5a-induced chemotaxis of human PMNs (microchamber assay); assay type: cell-based; settings: compound 10^-5 M (so in the source), C5a 1 ng/mL
# Description: (§1) The compounds of the invention of formula (I) were evaluated “in vitro” for their ability to inhibit chemotaxis of polymorphonucleate leukocytes (hereinafter referred to as PMNs) and monocytes, induced by the fractions of the complement C5a and C5a-desArg. For this purpose, to isolate the PMNs from heparinized human blood, taken from healthy adult volunteers, mononucleates were removed by means of sedimentation on dextrane (according to the procedure disclosed by W. J. Ming et al., J. Immunol., 138, 1469, 1987) and red blood cells by a hypotonic solution. The cell vitality was calculated by exclusion with Trypan blue, whilst the ratio of PMNs was estimated on the cytocentrifugate after staining with Diff Quick.
# The fractions hr-C5a and hrC5a-desArg (Sigma) were used as stimulating agents in chemotaxis experiments, obtaining practically identical results.
# Lyophilized C5a was dissolved in a volume of HBSS containing 0.2% BSA so as to obtain a stock solution having a concentration of 10^−5 M, to be diluted in HBSS to a concentration of 10^−9 M, for the chemotaxis assays.
# (§2) In the chemotaxis experiments, the PMNs were incubated with the compounds of the invention of formula (I) for 15′ at 37° C. in an atmosphere containing 5% CO2.
# (§3) The chemotactic activity of the C5a was evaluated on human circulating polymorphonucleates (PMNs) resuspended in HBSS at a concentration of 1.5×10^6 PMNs per ml.
# (§4) During the chemotaxis assay (according to W. Falket et al., J. Immunol. Methods, 33, 239, 1980) PVP-free filters with a porosity of 5 mcm and microchambers suitable for carrying out the test were used.
# […] The wells in the lower part contain the solution of C5a or the simple carrier, those in the upper part contain the suspension in PMNs.
# Inhibition of C5a-induced chemotactic activity by the individual compounds of the invention of formula (I) was evaluated by incubating the microchamber for the chemotaxis for 60 min at 37° C. in an atmosphere containing 5% CO2.
# [2] = test system: human PMNs (rhIL-8 induced chemotaxis); experiment: IL-8-induced chemotaxis of human PMNs (microchamber assay); assay type: cell-based; settings: IL-8 10 ng/mL; for inhibition at 0.01 µM: compound 10^-8 M; for inhibition at 1 µM: compound c = 10^-6 M
# Description: as §1, §2, §3, §4
# The compounds of the invention in formula (I) were evaluated at a concentration ranging between 10^−6 and 10^−10 M; for this purpose they were added, at the same concentration, both to the lower pores and the upper pores of the microchamber. The wells in the lower part contain the solution of C5a or the simple carrier, those in the upper part contain the suspension in PMNs.
# The compounds of the invention were also evaluated in their ability to inhibit IL-8-induced chemotaxis of human PMNs. For this purpose, recombinant human interleukin-8 (rhIL-8, Pepro Tech) was used: the lyophilized protein was dissolved in HBSS (Hank's balanced salts solution) at the concentration of 100 mcg/mL and then diluted down to a concentration of 10 ng/mL in the chemotaxis experiments. R(−)-2-[(4′-isobutyl)phenyl]-propionyl methansulfonamide (ED50=10^−9 M) described in WO 00/24710, was used as reference standard.
# [3] = test system: human PMNs (rhIL-8 induced chemotaxis); settings: reference standard; rhIL-8 10 ng/mL; read-out: ED50 (inhibition of IL-8-induced chemotaxis of human PMNs); cited from earlier work
melting point,Compound,inhibition at 10 µM ([1]; 1 h),inhibition at 0.01 µM [2],inhibition at 10 µM [1],inhibition at 1 µM [2],EC50 [3]
–,CC(C)Cc1ccc([C@@H](C)C(=O)N[C@@H](CCCN2CCCCC2)C(=O)O)cc1 [sodium salt],33 ± 15%,56 ± 9%,–,–,–
90 to 93 °C,CC(C)Cc1ccc([C@@H](C)C(=O)NCCN(C)C)cc1.Cl [(R)-2-(4-isobutylphenyl)-N-(2-dimethylaminoethyl)propionamide.HCl],62 ± 12%,56 ± 13%,–,–,–
–,CC(C)Cc1ccc([C@@H](C)C(=O)N[C@@H]2C[C@H]3CC[C@@H](C2)N3C)cc1 [(R) 2-(4-isobutylphenyl)-N-(exo-8-methyl-8-aza-bicyclo[3.2.1]oct-3-yl)propionamide hydrochloride],57 ± 6%,3 ± 8%,–,–,–
–,CC(C)Cc1ccc([C@@H](C)C(=O)NCC(=O)NCCN(C)C)cc1 [R-2-[(4′-isobutylphenyl]-N-[2-(dimethylaminoethyl)aminocarbonylmethyl]-propionamide hydrochloride],68 ± 4%,31 ± 6%,–,–,–
76 to 80 °C,CC(C)Cc1ccc([C@@H](C)C(=O)NCCCN2CCCCC2)cc1.Cl [(R) 2-(4-isobutylphenyl)-N-[3-(1-piperidinyl)propyl]propionamide hydrochloride],76 ± 6%,46 ± 8%,–,–,–
–,CC(C)c1cccc([C@@H](C)C(=O)NCCCN(C)C)c1 [(R) 2-(3-isopropylphenyl)-N-3-(dimethylaminopropyl)propionamide],42 ± 18%,5 ± 6%,42 ± 18%,48 ± 2%,–
–,"C[C@@H](C(=O)NCCCN(C)C)c1ccccc1Nc1c(Cl)cccc1Cl [(R)-2-[2-(2,6-dichlorophenylamino)-phenyl]-N-3-(dimethylaminopropyl) propionamide]",41 ± 2%,1 ± 13%,41 ± 2%,58 ± 6%,–
–,CC(C)Cc1ccc([C@@H](C)C(=O)NS(C)(=O)=O)cc1 [R(−)-2-[(4′-isobutyl)phenyl]-propionyl methansulfonamide],–,–,–,–,1 nM
–,C[C@@H](C(=O)NCCCN(C)C)c1cccc(C(=O)c2ccccc2)c1 [(R)-2-[(3-benzoyl)phenyl]-N-(3-dimethylaminopropyl)propionamide],56 ± 2%,53 ± 8%,–,–,–
–,"CC(C)Cc1ccc([C@@H](C)C(=O)NC(CCCCN)C(=O)O)cc1 (stereo partly drawn) [(R),(S′) 2-(4′-isobutylphenyl)-N-(1-carboxy-5-aminopentyl)propionamide hydro-chloride]",49%,5%,–,–,–
216 to 220 °C,CC(C)Cc1ccc([C@@H](C)C(=O)NCCCN2CCN(C)CC2)cc1.Cl.Cl,–,–,–,–,–
–,CC(C)Cc1ccc([C@@H](C)C(=O)NCCCN)cc1 [(R) 2-(4-isobutylphenyl)-N-(3-aminopropyl)propionamide hydrochloride],84 ± 8%,2 ± 7%,–,–,–
90 to 93 °C,CC(C)Cc1ccc([C@@H](C)C(=O)NCCCN2CCOCC2)cc1.Cl [(R) 2-(4-isobutylphenyl)-N-3-(N-morpholinylpropyl)propionamide.HCl],24 ± 11%,55 ± 12%,–,–,–
95 to 98 °C,CC(C)Cc1ccc([C@@H](C)C(=O)NCCCN(C)C)cc1.Cl [(R) 2-(4-isobutylphenyl)-N-(3-dimethylaminopropyl)propionamide hydrochloride],65 ± 14%,51 ± 15%,–,–,–
–,CC(C)Cc1ccc([C@@H](C)C(=O)NC2CCN(C)CC2)cc1 [(R) 2-(4-isobutylphenyl)-N-(1-methyl-piperidin-4-yl)propionamide hydrochloride],48 ± 8%,4 ± 9%,–,–,–
95 to 97 °C,CC(C)Cc1ccc([C@@H](C)C(=O)NCCCCN(C)C)cc1.Cl [(R) 2-(4-isobutylphenyl)-N-(4-dimethylaminobutyl)propionamide. HCl],55 ± 8%,34 ± 6%,–,–,–
